Data as given in US20060074243A1, “Hydroxamic acid and amide compounds and their use as protease inhibitors” (Pharmacia Corporation, priority 2002, published 2006).

What was measured:
Human recombinant MMP-14 = target: T1, Human recombinant MMP-14 (Homo sapiens, UniProt P50281); test: In vitro MMP inhibition analysis (fluorogenic peptide substrate cleavage), Ki; assay type: biochemical; conditions: Table 2
T1 construct: The catalytic domain enzyme was expressed in E. coli inclusion bodies, solubilized in urea; made in house
Summary of the method: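 Refolded catalytic domain of MMP-14 expressed in E. coli, activated with APMA or trypsin, incubated 1 h at room temperature with 4 μM MCA-peptide substrate in Tris buffer pH 7.5 with CaCl2. Cleavage rate followed by fluorescence (ex 330/em 420 nm). Ki from Morrison-equation fit; substrate at or below Km, so no substrate correction.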

Human recombinant MMP-2 = target: T2, Human recombinant MMP-2 (Homo sapiens, UniProt P08253); test: as above; assay type: biochemical; conditions: Table 2
T2 construct: made in house; host or cells: MMP-2-transfected p2AHT2 cells
T2 sequence (P08253 110-660): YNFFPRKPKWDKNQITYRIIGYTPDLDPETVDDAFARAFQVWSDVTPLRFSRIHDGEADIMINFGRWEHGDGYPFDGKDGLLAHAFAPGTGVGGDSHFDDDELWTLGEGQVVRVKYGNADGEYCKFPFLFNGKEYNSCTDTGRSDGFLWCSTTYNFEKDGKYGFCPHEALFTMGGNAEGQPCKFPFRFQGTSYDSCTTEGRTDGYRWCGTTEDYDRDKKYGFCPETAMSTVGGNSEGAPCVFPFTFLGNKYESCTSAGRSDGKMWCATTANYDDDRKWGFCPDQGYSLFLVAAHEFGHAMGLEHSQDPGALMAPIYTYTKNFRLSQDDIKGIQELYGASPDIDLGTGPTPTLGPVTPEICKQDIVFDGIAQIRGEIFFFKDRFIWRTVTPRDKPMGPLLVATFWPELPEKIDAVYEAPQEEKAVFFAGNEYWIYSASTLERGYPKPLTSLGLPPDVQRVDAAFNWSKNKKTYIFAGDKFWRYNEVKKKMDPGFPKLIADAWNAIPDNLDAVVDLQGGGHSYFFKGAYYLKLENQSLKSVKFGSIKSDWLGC
Summary of the method: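 Human recombinant MMP-2 from transfected p2AHT2 cells was activated with APMA or trypsin and incubated 1 h at room temperature with compounds and 4 μM MCA-RPLGL(Dpa)ARER-NH2. Buffer was pH 7.5 Tris/NaCl/CaCl2, and fluorescence was read at ex 330/em 420 nm. Ki was fitted by Morrison's equation without substrate correction.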

O=C(NO)C1(S(=O)(=O)c2ccc(-c3ccc(CCC(F)(F)C(F)(F)F)cc3)cc2)CCS(=O)(=O)CC1 [Example 167]
Ki (Human recombinant MMP-14): 3590 nM
Ki (Human recombinant MMP-2): 1.9 nM

CC[C@H](C)NC(=O)c1ccc(-c2ccc(S(=O)(=O)C3(C(=O)NO)CCOCC3)cc2)nc1 [Example 208]
Ki (Human recombinant MMP-14): > 10000 nM
Ki (Human recombinant MMP-2): 10.6 nM

CC(C)c1ccc(-c2ccc(S(=O)(=O)C3(C(=O)NO)CCOCC3)cc2)cc1 [Example 97]
Ki (Human recombinant MMP-14): 109 nM
Ki (Human recombinant MMP-2): 1.14 nM

O=C(NO)C1(S(=O)(=O)c2ccc(-c3ccc(OC(F)(F)F)cc3)cc2)CCOCC1 [Example 80]
Ki (Human recombinant MMP-14): 89.1 nM
Ki (Human recombinant MMP-2): 0.098 nM

O=C(NO)C1(S(=O)(=O)c2ccc(-c3cnc(OCCC4CC4)cn3)cc2)CCOCC1 [Example 172]
Ki (Human recombinant MMP-14): 222 nM
Ki (Human recombinant MMP-2): 0.07 nM

COCCN1CCC(C(=O)NO)(S(=O)(=O)c2ccc(-c3cnc(OCCC4CCCC4)cn3)cc2)CC1 [Example 200]
Ki (Human recombinant MMP-14): 942 nM
Ki (Human recombinant MMP-2): 0.404 nM

O=C(c1ccc2cc(-c3ccc(S(=O)(=O)C4(C(=O)NO)CCOCC4)cc3)ccc2c1)N1CCOCC1 [Example 222]
Ki (Human recombinant MMP-14): > 10000 nM
Ki (Human recombinant MMP-2): 7.8 nM

O=C(NO)C1(S(=O)(=O)c2ccc(-c3ccc(F)c(C(F)(F)F)c3)cc2)CCOCC1 [Example 84]
Ki (Human recombinant MMP-14): 989 nM
Ki (Human recombinant MMP-2): 10.1 nM

O=C(NO)C1(S(=O)(=O)c2ccc(-c3ccc(OCC(F)(F)C(F)(F)F)cc3)cc2)CCOCC1 [Example 95]
Ki (Human recombinant MMP-14): 463 nM
Ki (Human recombinant MMP-2): 0.17 nM

O=C(NO)C1(S(=O)(=O)c2ccc(-c3cnc(OCCC4CCCC4)cn3)cc2)CCOCC1 [Example 180]
Ki (Human recombinant MMP-14): 1140 nM
Ki (Human recombinant MMP-2): 0.295 nM

COCCO[C@H]1CC[C@](C(=O)NO)(S(=O)(=O)c2ccc(-c3cnc(CCC(F)(F)C(F)(F)F)cn3)cc2)CC1 [Example 187]
Ki (Human recombinant MMP-14): 625 nM
Ki (Human recombinant MMP-2): 0.32 nM

CCN1CCC(C(=O)NO)(S(=O)(=O)c2ccc(-c3cnc(CCC(F)(F)F)cn3)cc2)CC1 [Example 213]
Ki (Human recombinant MMP-14): > 10000 nM
Ki (Human recombinant MMP-2): 3.57 nM

O=C(NO)C1(S(=O)(=O)c2ccc(-c3cnc(CCC(F)(F)F)cn3)cc2)CCN(C2CC2)CC1 [Example 215]
Ki (Human recombinant MMP-14): 5070 nM
Ki (Human recombinant MMP-2): 1.15 nM

Cc1nc(CCc2ccc(-c3ccc(S(=O)(=O)C4(C(=O)NO)CCOCC4)cc3)cc2)no1 [Example 219]
Ki (Human recombinant MMP-14): 1760 nM
Ki (Human recombinant MMP-2): 0.588 nM

O=C(c1ccc2cc(-c3ccc(S(=O)(=O)C4(C(=O)NO)CCOCC4)cc3)ccc2c1)N1CCCCC1 [Example 223]
Ki (Human recombinant MMP-14): > 10000 nM
Ki (Human recombinant MMP-2): 11 nM

O=C(NCC1CC1)c1cnc(-c2ccc(S(=O)(=O)C3(C(=O)NO)CCOCC3)cc2)cn1 [Example 191]
Ki (Human recombinant MMP-14): 930 nM
Ki (Human recombinant MMP-2): 0.75 nM

CCN1CCC(C(=O)NO)(S(=O)(=O)c2ccc(-c3cnc(CCCC(F)(F)F)cn3)cc2)CC1 [Example 217]
Ki (Human recombinant MMP-14): > 10000 nM
Ki (Human recombinant MMP-2): 9.06 nM

COCCOC1CCC(C(=O)NO)(S(=O)(=O)c2ccc(-c3cnc(CCCC(F)(F)F)cn3)cc2)CC1 (centres unmarked) [Example 210]
Ki (Human recombinant MMP-14): 3430 nM
Ki (Human recombinant MMP-2): 1.01 nM

CC(C)COc1cnc(-c2ccc(S(=O)(=O)C3(C(=O)NO)CCOCC3)cc2)cn1 [Example 170]
Ki (Human recombinant MMP-14): 234 nM
Ki (Human recombinant MMP-2): 0.09 nM

O=C(NO)C1(S(=O)(=O)c2ccc(-c3nc4ccccc4o3)cc2)CCOCC1 [Example 193]
Ki (Human recombinant MMP-14): 96.7 nM
Ki (Human recombinant MMP-2): 1.34 nM

O=C(NO)C1(S(=O)(=O)c2ccc(-c3ccc(CCC(F)(F)F)cn3)cc2)CCOCC1 [Example 176]
Ki (Human recombinant MMP-14): 111 nM
Ki (Human recombinant MMP-2): 0.04 nM

O=C(N1CCCCC1)N1CCC(C(=O)NO)(S(=O)(=O)c2ccc(-c3ccc(CCC(F)(F)C(F)(F)F)cc3)cc2)CC1 [Example 175]
Ki (Human recombinant MMP-14): > 10000 nM
Ki (Human recombinant MMP-2): 0.42 nM

O=C(NO)C1(S(=O)(=O)c2ccc(-c3cnc(-n4cccc4)cn3)cc2)CCOCC1 [Example 94]
Ki (Human recombinant MMP-14): 2940 nM
Ki (Human recombinant MMP-2): 1.09 nM

CCCCNc1cnc(-c2ccc(S(=O)(=O)C3(C(=O)NO)CCOCC3)cc2)cn1 [Example 83]
Ki (Human recombinant MMP-14): 6360 nM
Ki (Human recombinant MMP-2): 7.44 nM

CO[C@H]1CC[C@](C(=O)NO)(S(=O)(=O)c2ccc(-c3cnc(CCC(F)(F)C(F)(F)F)cn3)cc2)CC1 [Example 183]
Ki (Human recombinant MMP-14): 798 nM
Ki (Human recombinant MMP-2): 0.35 nM

CC(C)CC#Cc1cnc(-c2ccc(S(=O)(=O)C3(C(=O)NO)CCOCC3)cc2)cn1 [Example 166]
Ki (Human recombinant MMP-14): 264 nM
Ki (Human recombinant MMP-2): 0.4 nM

O=C(NO)C1(S(=O)(=O)c2ccc(-c3cnc(OCC4CCC4)cn3)cc2)CCOCC1 [Example 178]
Ki (Human recombinant MMP-14): 326 nM
Ki (Human recombinant MMP-2): 0.1 nM

O=C(N1CCOCC1)N1CCC(C(=O)NO)(S(=O)(=O)c2ccc(-c3ccc(CCC(F)(F)C(F)(F)F)cc3)cc2)CC1 [Example 171]
Ki (Human recombinant MMP-14): 633 nM
Ki (Human recombinant MMP-2): 0.24 nM

O=C(NO)C1(S(=O)(=O)c2ccc(-c3ccc(C(F)(F)F)cc3F)cc2)CCOCC1 [Example 96]
Ki (Human recombinant MMP-14): 224 nM
Ki (Human recombinant MMP-2): 0.668 nM

O=C(NO)C1(S(=O)(=O)c2ccc(-c3nc4ccccc4s3)cc2)CCOCC1 [Example 195]
Ki (Human recombinant MMP-14): 1790 nM
Ki (Human recombinant MMP-2): 5.74 nM

COCCOC1CCC(C(=O)NO)(S(=O)(=O)c2ccc(-c3ccc(CCCC(F)(F)F)cn3)cc2)CC1 (centres unmarked) [Example 209]
Ki (Human recombinant MMP-14): 272 nM
Ki (Human recombinant MMP-2): 0.081 nM

COc1ccc(C(=O)c2cnc(-c3ccc(S(=O)(=O)C4(C(=O)NO)CCOCC4)cc3)cn2)cc1 [Example 179]
Ki (Human recombinant MMP-14): 218 nM
Ki (Human recombinant MMP-2): 2.99 nM

O=C1c2ccccc2C(=O)N1CCCOc1cccc(-c2ccc(S(=O)(=O)C3(C(=O)NO)CCOCC3)cc2)c1 [Example 196]
Ki (Human recombinant MMP-14): > 10000 nM
Ki (Human recombinant MMP-2): 947 nM

O=C(NCC1CCCCC1)c1cnc(-c2ccc(S(=O)(=O)C3(C(=O)NO)CCOCC3)cc2)cn1 [Example 190]
Ki (Human recombinant MMP-14): 4700 nM
Ki (Human recombinant MMP-2): 1.7 nM

O=C(NCC(F)(F)C(F)(F)F)c1cnc(-c2ccc(S(=O)(=O)C3(C(=O)NO)CCOCC3)cc2)cn1 [Example 192]
Ki (Human recombinant MMP-14): 5920 nM
Ki (Human recombinant MMP-2): 0.89 nM

Cc1ccc(-c2ccc(S(=O)(=O)C3(C(=O)NO)CCOCC3)cc2)nc1 [Example 81]
Ki (Human recombinant MMP-14): 22.6 nM
Ki (Human recombinant MMP-2): 0.106 nM

COCCN1CCC(C(=O)NO)(S(=O)(=O)c2ccc(-c3cnc(CCC(F)(F)F)cn3)cc2)CC1 [Example 214]
Ki (Human recombinant MMP-14): 6980 nM
Ki (Human recombinant MMP-2): 2.09 nM

CCCCNC(=O)c1cnc(-c2ccc(S(=O)(=O)C3(C(=O)NO)CCOCC3)cc2)cn1 [Example 184]
Ki (Human recombinant MMP-14): 1290 nM
Ki (Human recombinant MMP-2): 0.8 nM

O=C(NO)C1(S(=O)(=O)c2ccc(-c3ccc(OCC(F)(F)C(F)(F)F)c(C(F)(F)F)c3)cc2)CCOCC1 [Example 90]
Ki (Human recombinant MMP-14): 2100 nM
Ki (Human recombinant MMP-2): 28.3 nM

CC(C)CCc1cnc(-c2ccc(S(=O)(=O)C3(C(=O)NO)CCOCC3)cc2)cn1 [Example 169]
Ki (Human recombinant MMP-14): 2520 nM
Ki (Human recombinant MMP-2): 1.09 nM

O=C(NO)C1(S(=O)(=O)c2ccc(-c3ccc(C(F)(F)F)cn3)cc2)CCOCC1 [Example 82]
Ki (Human recombinant MMP-14): 65.4 nM
Ki (Human recombinant MMP-2): 0.2 nM

O=C(NCC1CC1)c1ccc2cc(-c3ccc(S(=O)(=O)C4(C(=O)NO)CCOCC4)cc3)ccc2c1 [Example 220]
Ki (Human recombinant MMP-14): > 2500 nM
Ki (Human recombinant MMP-2): 0.539 nM

CN(C)C(=O)N1CCC(C(=O)NO)(S(=O)(=O)c2ccc(-c3ccc(CCC(F)(F)C(F)(F)F)cc3)cc2)CC1 [Example 173]
Ki (Human recombinant MMP-14): 441 nM
Ki (Human recombinant MMP-2): 0.35 nM

CC(C)(C)NC(=O)c1ccc(-c2ccc(S(=O)(=O)C3(C(=O)NO)CCOCC3)cc2)nc1 [Example 205]
Ki (Human recombinant MMP-14): 7630 nM
Ki (Human recombinant MMP-2): 15.1 nM

O=C(NC1CCCC1)c1ccc(-c2ccc(S(=O)(=O)C3(C(=O)NO)CCOCC3)cc2)nc1 [Example 198]
Ki (Human recombinant MMP-14): 5120 nM
Ki (Human recombinant MMP-2): 2.16 nM

CC(C)CCOc1ccc(-c2ccc(S(=O)(=O)C3(C(=O)NO)CCOCC3)cc2)cc1C(F)(F)F [Example 86]
Ki (Human recombinant MMP-14): > 10000 nM
Ki (Human recombinant MMP-2): 85.7 nM
